{
  "source": "patent US12648903B2",
  "about": "“Skin care composition” (BEIERSDORF AG, priority 2019, dated 2026)",
  "key": {"C. acnes strain K8": {"system": "C. acnes strain K8", "assay": "Minimum inhibitory concentration (MIC) of cosmetic excipients, strain K8", "format": "cell-based, Cutibacterium acnes", "conditions": "% w/vol, incubated anaerobically 3 days at 37° C., growth scored visually", "description": "(§1) In microbiology, the MIC is the lowest concentration of a chemical which prevents visible growth of bacterium. The resulted MIC value depends both on the microorganism and the test compound. The MIC is determined by preparing concentrations series of the test compound in vitro, incubating the solutions with the separate batches of cultured bacteria, and measuring the results using agar dilution or broth microdilution. For the experiments with C. acnes strains C3 and K8, media comprising yeast extract soy peptone and dextrose were used. The MIC is determined by turbidity.\n(§2) A total of 125 cosmetic excipients were tested for their compatibility with C. acnes strains C3 and K8. Hydrophilic compounds were tested in a 96-well plate liquid broth format, poorly soluble compounds were pre-dissolved in DMSO before dilution in liquid broth and hydrophobic or solid compounds were tested in an agar well diffusion test assay. The different dilutions of the test excipients in media were prepared in Falcon tubes and then distributed in a deep well plate using a multistepper. Each well received 1.2 ml and was subsequently inoculated with 120 μl of C. acnes bacteria suspension (strain C3 and K8). From the deep well plate 200 μl were transferred in each well of a clear 96 well replicate plate. The leftover was discarded. The plates were then incubated anaerobically for 3 days at 37° C. Following incubation, the test plates were visually examined and wells were scored for growth or complete growth inhibition to define the minimum inhibitory concentration.\n(§3) These excipients are listed in the below table with their compatibility values for C. acnes strains C3 and K8. The compatibility values represent the MIC value of the listed ingredients with the tested C. acnes strains. At this concentration [% w/vol] the tested compound starts interfering with the growth of the tested strains. The compounds can be used in formulations at concentrations below this concentration."}, "C. acnes strain C3": {"system": "C. acnes strain C3", "assay": "Minimum inhibitory concentration (MIC) of cosmetic excipients, strain C3", "format": "cell-based, Cutibacterium acnes", "conditions": "% w/vol, incubated anaerobically 3 days at 37° C., growth scored visually", "description": "as §1, §2, §3"}},
  "data": [
    {"compound": "tocopherol", "values": [
      {"measurement": "COMPATABILITY VALUE K8 [%] (MIC value)", "setting": "C. acnes strain K8", "value": 1.50, "unit": "%"},
      {"measurement": "COMPATABILITY VALUE C3 [%] (MIC value)", "setting": "C. acnes strain C3", "value": 1.50, "unit": "%"}
    ]},
    {"compound": "CC(CO)CO", "note": "[methylpropanediol]", "values": [
      {"measurement": "COMPATABILITY VALUE K8 [%] (MIC value)", "setting": "C. acnes strain K8", "value": 4.00, "unit": "%"},
      {"measurement": "COMPATABILITY VALUE C3 [%] (MIC value)", "setting": "C. acnes strain C3", "value": 4.00, "unit": "%"}
    ]},
    {"compound": "ethylhexyl cocoate", "values": [
      {"measurement": "COMPATABILITY VALUE K8 [%] (MIC value)", "setting": "C. acnes strain K8", "value": 10.00, "unit": "%"},
      {"measurement": "COMPATABILITY VALUE C3 [%] (MIC value)", "setting": "C. acnes strain C3", "value": 10.00, "unit": "%"}
    ]},
    {"compound": "CCCCCCC(O)CO", "note": "(centres unmarked) [caprylyl glycol]", "values": [
      {"measurement": "COMPATABILITY VALUE K8 [%] (MIC value)", "setting": "C. acnes strain K8", "value": 0.18, "unit": "%"},
      {"measurement": "COMPATABILITY VALUE C3 [%] (MIC value)", "setting": "C. acnes strain C3", "value": 0.18, "unit": "%"}
    ]}
  ]
}
